From the supplement of paper PMC10307832

Tests used:
Experiment in all cases: relative viability (nuclei count vs DMSO), 5 days (fraction); higher = more cells survive
IA-LM = tested on: IA-LM
How it was run: (§1)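 Lung cancer cell lines, seeded in 1536-well plates, were treated the following day by pin tool with a single drug or with five library-drug doses (not always all listed) in √10 steps on top of a fixed anchor-drug dose. Cells were fixed and nuclei stained in one step after 5 days, and nuclei were counted. Relative viability is the nuclei count for treated wells divided by that for vehicle wells, reported as medians of duplicate plates.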

NCI-H1648 = tested on: NCI-H1648
How it was run: as §1

NCI-H661 = tested on: NCI-H661
How it was run: as §1

EMC-BAC-2 = tested on: EMC-BAC-2
How it was run: as §1

NCI-H1437 = tested on: NCI-H1437
How it was run: as §1

HCC-78 = tested on: HCC-78
How it was run: as §1

ABC-1 = tested on: ABC-1
How it was run: as §1

NCI-H1395 = tested on: NCI-H1395
How it was run: as §1

NCI-H23 = tested on: NCI-H23
How it was run: as §1

A549 = tested on: A549
How it was run: as §1

NCI-H1299 = tested on: NCI-H1299
How it was run: as §1

EBC-1 = tested on: EBC-1
How it was run: as §1

Calu-6 = tested on: Calu-6
How it was run: as §1

NCI-H1703 = tested on: NCI-H1703
How it was run: as §1

SMILES: COCC1(CO)C(=O)C2CCN1CC2 (centres undefined) [PRIMA-1MET] + O=C(CCCCCCC(=O)Nc1ccccc1)NO [Vorinostat] (partner 1 µM)
- relative viability (IA-LM; first compound 0.2 µM): 0.971
- relative viability (IA-LM; first compound 0.6325 µM): 0.74
- relative viability (IA-LM; first compound 2 µM): 0.926
- relative viability (IA-LM; first compound 6.325 µM): 1.06
- relative viability (IA-LM; first compound 20 µM): 1.05
- relative viability (NCI-H1648; first compound 0.2 µM): 0.668
- relative viability (NCI-H1648; first compound 2 µM): 0.445
- relative viability (NCI-H1648; first compound 20 µM): 0.621
- relative viability (NCI-H661; first compound 0.2 µM): 0.853
- relative viability (NCI-H661; first compound 0.6325 µM): 0.771
- relative viability (NCI-H661; first compound 2 µM): 0.774
- relative viability (NCI-H661; first compound 6.325 µM): 0.816
- relative viability (NCI-H661; first compound 20 µM): 0.759
- relative viability (EMC-BAC-2; first compound 0.2 µM): 0.582
- relative viability (EMC-BAC-2; first compound 0.6325 µM): 0.36
- relative viability (EMC-BAC-2; first compound 2 µM): 0.335
- relative viability (EMC-BAC-2; first compound 6.325 µM): 0.527
- relative viability (EMC-BAC-2; first compound 20 µM): 0.271
- relative viability (NCI-H1437; first compound 0.2 µM): 0.951
- relative viability (NCI-H1437; first compound 0.6325 µM): 0.685
- relative viability (NCI-H1437; first compound 2 µM): 0.792
- relative viability (NCI-H1437; first compound 6.325 µM): 0.939
- relative viability (NCI-H1437; first compound 20 µM): 0.776
- relative viability (HCC-78; first compound 0.2 µM): 0.624
- relative viability (HCC-78; first compound 0.6325 µM): 0.407
- relative viability (HCC-78; first compound 2 µM): 0.392
- relative viability (HCC-78; first compound 6.325 µM): 0.403
- relative viability (HCC-78; first compound 20 µM): 0.102
- relative viability (ABC-1; first compound 0.2 µM): 1.01
- relative viability (ABC-1; first compound 2 µM): 1.09
- relative viability (ABC-1; first compound 6.325 µM): 1.11
- relative viability (ABC-1; first compound 20 µM): 0.262
- relative viability (NCI-H1395; first compound 0.2 µM): 0.623
- relative viability (NCI-H1395; first compound 2 µM): 0.534
- relative viability (NCI-H1395; first compound 6.325 µM): 0.762
- relative viability (NCI-H1395; first compound 20 µM): 0.26
- relative viability (NCI-H23; first compound 0.2 µM): 0.72
- relative viability (NCI-H23; first compound 0.6325 µM): 0.48
- relative viability (NCI-H23; first compound 2 µM): 0.482
- relative viability (NCI-H23; first compound 6.325 µM): 0.569
- relative viability (NCI-H23; first compound 20 µM): 0.0886

SMILES: COCC1(CO)C(=O)C2CCN1CC2 (centres undefined) [PRIMA-1MET] + O=C(c1cc(Cc2n[nH]c(=O)c3ccccc23)ccc1F)N1CCN(C(=O)C2CC2)CC1 [Olaparib] (partner 8 µM)
- relative viability (A549; first compound 0.2 µM): 0.528
- relative viability (A549; first compound 0.6325 µM): 0.365
- relative viability (A549; first compound 2 µM): 0.379
- relative viability (A549; first compound 6.325 µM): 0.371
- relative viability (A549; first compound 20 µM): 0.266
- relative viability (IA-LM; first compound 0.2 µM): 0.867
- relative viability (IA-LM; first compound 0.6325 µM): 0.676
- relative viability (IA-LM; first compound 2 µM): 0.905
- relative viability (IA-LM; first compound 6.325 µM): 0.819
- relative viability (IA-LM; first compound 20 µM): 0.788
- relative viability (NCI-H1299; first compound 0.2 µM): 0.984
- relative viability (NCI-H1299; first compound 0.6325 µM): 0.921
- relative viability (NCI-H1299; first compound 2 µM): 0.99
- relative viability (NCI-H1299; first compound 6.325 µM): 0.959
- relative viability (NCI-H1299; first compound 20 µM): 0.984
- relative viability (EBC-1; first compound 0.2 µM): 0.692
- relative viability (EBC-1; first compound 0.6325 µM): 0.712
- relative viability (EBC-1; first compound 2 µM): 0.701
- relative viability (EBC-1; first compound 6.325 µM): 0.828
- relative viability (EBC-1; first compound 20 µM): 0.7
- relative viability (NCI-H1648; first compound 0.2 µM): 0.747
- relative viability (NCI-H1648; first compound 2 µM): 1.43
- relative viability (NCI-H1648; first compound 20 µM): 0.912
- relative viability (NCI-H661; first compound 0.2 µM): 0.827
- relative viability (NCI-H661; first compound 0.6325 µM): 0.721
- relative viability (NCI-H661; first compound 2 µM): 0.76
- relative viability (NCI-H661; first compound 6.325 µM): 0.753
- relative viability (NCI-H661; first compound 20 µM): 0.751
- relative viability (EMC-BAC-2; first compound 0.2 µM): 0.624
- relative viability (EMC-BAC-2; first compound 0.6325 µM): 0.486
- relative viability (EMC-BAC-2; first compound 6.325 µM): 0.499
- relative viability (EMC-BAC-2; first compound 20 µM): 0.43
- relative viability (NCI-H1437; first compound 0.2 µM): 0.641
- relative viability (NCI-H1437; first compound 0.6325 µM): 0.556
- relative viability (NCI-H1437; first compound 2 µM): 0.627
- relative viability (NCI-H1437; first compound 6.325 µM): 0.65
- relative viability (NCI-H1437; first compound 20 µM): 0.614
- relative viability (Calu-6; first compound 0.2 µM): 0.547
- relative viability (Calu-6; first compound 0.6325 µM): 0.588
- relative viability (Calu-6; first compound 2 µM): 0.594
- relative viability (Calu-6; first compound 6.325 µM): 0.516
- relative viability (Calu-6; first compound 20 µM): 0.443
- relative viability (NCI-H1703; first compound 0.2 µM): 0.422
- relative viability (NCI-H1703; first compound 6.325 µM): 0.769
- relative viability (NCI-H1703; first compound 20 µM): 0.0733
- relative viability (HCC-78; first compound 0.2 µM): 1
- relative viability (HCC-78; first compound 0.6325 µM): 1.06
- relative viability (HCC-78; first compound 2 µM): 0.573
- relative viability (HCC-78; first compound 6.325 µM): 0.881
- relative viability (HCC-78; first compound 20 µM): 0.338
- relative viability (ABC-1; first compound 0.2 µM): 0.993
- relative viability (ABC-1; first compound 2 µM): 0.664
- relative viability (ABC-1; first compound 6.325 µM): 0.662
- relative viability (ABC-1; first compound 20 µM): 0.616
- relative viability (NCI-H1395; first compound 0.2 µM): 0.51
- relative viability (NCI-H1395; first compound 2 µM): 0.476
- relative viability (NCI-H1395; first compound 6.325 µM): 0.432
- relative viability (NCI-H1395; first compound 20 µM): 0.426
- relative viability (NCI-H23; first compound 0.2 µM): 0.313
- relative viability (NCI-H23; first compound 0.6325 µM): 0.291
- relative viability (NCI-H23; first compound 2 µM): 0.287
- relative viability (NCI-H23; first compound 6.325 µM): 0.27
- relative viability (NCI-H23; first compound 20 µM): 0.082
